Measurements as given in PMC8534050, “Discovery of a Potent and Highly Isoform-Selective Inhibitor of the Neglected Ribosomal Protein S6 Kinase Beta 2 (S6K2)” (Cancers, 2021).

Tests used:
Assay in all cases: DSF thermal shift assay
Assay type in all cases: binding
Conditions in all cases: inhibitor 10 μM, protein 2 μM
CAMK2D = target: T1, CAMK2D (Homo sapiens, UniProt Q13557)
T1 construct: purchased in-house DSF (thermal shift) panel per Fedorov et al
Procedure: (§1) Differences in the melting temperature (ΔTm) were measured as described by Fedorov et al.. Purified proteins were buffered in 25 mM HEPES (pH 7.5), 500 mM NaCl and were assayed in a 384-well plate with a final protein concentration of 2 μM in 10 μL assay volume. Inhibitors were added to a final concentration of 10 μM using an ECHO 550 acoustic dispenser (Labcyte, San José, CA, USA). As a fluorescence probe, SYPRO-Orange (Molecular Probes, Eugene, OR, USA) was added in a 1:5000 dilution. […] Data were analyzed through Boltzmann equation in the Protein Thermal Shift software (Applied Biosystems, Waltham, MA, USA). Samples were measured in technical duplicates.

GPRK5 = target: T2, GPRK5 (Homo sapiens, UniProt P34947)
T2 construct: purchased in-house DSF (thermal shift) panel per Fedorov et al
T2 sequence (P34947 whole entry): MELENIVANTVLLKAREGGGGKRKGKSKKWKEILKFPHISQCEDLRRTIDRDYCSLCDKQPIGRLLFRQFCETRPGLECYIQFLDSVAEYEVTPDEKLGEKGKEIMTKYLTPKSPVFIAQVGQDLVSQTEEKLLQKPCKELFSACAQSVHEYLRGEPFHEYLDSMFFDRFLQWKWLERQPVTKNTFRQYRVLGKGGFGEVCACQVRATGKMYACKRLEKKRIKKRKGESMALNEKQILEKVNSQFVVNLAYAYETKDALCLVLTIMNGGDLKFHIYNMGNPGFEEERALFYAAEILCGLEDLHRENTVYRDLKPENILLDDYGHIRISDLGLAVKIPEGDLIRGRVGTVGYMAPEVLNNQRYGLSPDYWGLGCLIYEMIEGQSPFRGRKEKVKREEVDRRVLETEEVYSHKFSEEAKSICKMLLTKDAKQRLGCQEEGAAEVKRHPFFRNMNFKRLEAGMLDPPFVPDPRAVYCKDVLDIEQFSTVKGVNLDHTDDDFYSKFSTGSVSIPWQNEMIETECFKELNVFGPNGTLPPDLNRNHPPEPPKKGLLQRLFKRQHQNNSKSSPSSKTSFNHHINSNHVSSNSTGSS
Procedure: as §1

CAMK1G = target: T3, CAMK1G (Homo sapiens, UniProt Q96NX5)
T3 construct: purchased in-house DSF (thermal shift) panel per Fedorov et al; IC50 follow-up at Reaction Biology Corp
Procedure: as §1

PCTK1 = target: T4, PCTK1 (Homo sapiens, UniProt Q00536)
T4 construct: purchased in-house DSF (thermal shift) panel per Fedorov et al; IC50 follow-up at Reaction Biology Corp
Procedure: as §1

TLK1 = target: T5, TLK1 (Homo sapiens, UniProt Q9UKI8)
T5 construct: purchased in-house DSF (thermal shift) panel per Fedorov et al; IC50 follow-up at Reaction Biology Corp
Procedure: as §1

ABL1 = target: T6, ABL1 (Homo sapiens, UniProt P00519)
T6 construct: purchased in-house DSF (thermal shift) panel per Fedorov et al; IC50 follow-up at Reaction Biology Corp
T6 sequence (P00519 whole entry): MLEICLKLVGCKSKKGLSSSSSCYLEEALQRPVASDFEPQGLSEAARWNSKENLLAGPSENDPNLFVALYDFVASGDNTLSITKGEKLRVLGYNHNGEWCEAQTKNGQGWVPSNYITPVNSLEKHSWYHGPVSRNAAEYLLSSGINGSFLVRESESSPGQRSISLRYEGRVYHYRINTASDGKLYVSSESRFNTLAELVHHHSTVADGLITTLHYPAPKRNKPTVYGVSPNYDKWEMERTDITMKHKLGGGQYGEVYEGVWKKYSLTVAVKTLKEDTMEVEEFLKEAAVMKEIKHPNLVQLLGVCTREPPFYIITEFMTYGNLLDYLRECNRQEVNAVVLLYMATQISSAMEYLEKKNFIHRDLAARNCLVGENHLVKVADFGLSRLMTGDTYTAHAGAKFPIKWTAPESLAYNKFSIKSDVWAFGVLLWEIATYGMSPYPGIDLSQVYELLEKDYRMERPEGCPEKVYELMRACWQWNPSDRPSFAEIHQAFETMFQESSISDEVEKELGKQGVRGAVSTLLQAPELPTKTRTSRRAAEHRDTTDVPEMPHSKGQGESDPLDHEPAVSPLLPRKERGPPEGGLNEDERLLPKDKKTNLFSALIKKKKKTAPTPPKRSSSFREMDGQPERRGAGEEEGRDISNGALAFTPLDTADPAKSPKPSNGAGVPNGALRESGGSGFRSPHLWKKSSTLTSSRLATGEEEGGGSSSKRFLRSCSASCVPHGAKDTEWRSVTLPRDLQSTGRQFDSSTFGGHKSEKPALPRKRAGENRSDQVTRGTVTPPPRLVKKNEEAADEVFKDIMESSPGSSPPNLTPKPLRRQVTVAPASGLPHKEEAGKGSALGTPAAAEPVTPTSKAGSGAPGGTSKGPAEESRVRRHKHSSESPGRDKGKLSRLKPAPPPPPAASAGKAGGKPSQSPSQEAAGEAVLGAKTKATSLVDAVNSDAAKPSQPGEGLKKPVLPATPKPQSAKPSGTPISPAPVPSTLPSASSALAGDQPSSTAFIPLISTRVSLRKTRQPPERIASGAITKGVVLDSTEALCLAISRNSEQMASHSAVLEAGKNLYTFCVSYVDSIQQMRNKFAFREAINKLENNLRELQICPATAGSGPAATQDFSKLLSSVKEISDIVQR
Procedure: as §1

FLT1 = target: T7, FLT1 (Homo sapiens, UniProt P17948)
T7 construct: purchased in-house DSF (thermal shift) panel per Fedorov et al
Procedure: as §1

CDKL1 = target: T8, CDKL1 (Homo sapiens, UniProt Q00532)
T8 construct: purchased in-house DSF (thermal shift) panel per Fedorov et al; IC50 follow-up at Reaction Biology Corp
Procedure: as §1

GSK3B = target: T9, GSK3B (Homo sapiens, UniProt P49841)
T9 construct: purchased in-house DSF (thermal shift) panel per Fedorov et al; IC50 follow-up at Reaction Biology Corp
Procedure: as §1

EPHA5 = target: T10, EPHA5 (Homo sapiens, UniProt P54756)
T10 construct: purchased in-house DSF (thermal shift) panel per Fedorov et al; IC50 follow-up at Reaction Biology Corp
Procedure: as §1

BRAF = target: T11, BRAF (Homo sapiens, UniProt P15056)
T11 construct: purchased in-house DSF (thermal shift) panel per Fedorov et al
T11 sequence (P15056 whole entry): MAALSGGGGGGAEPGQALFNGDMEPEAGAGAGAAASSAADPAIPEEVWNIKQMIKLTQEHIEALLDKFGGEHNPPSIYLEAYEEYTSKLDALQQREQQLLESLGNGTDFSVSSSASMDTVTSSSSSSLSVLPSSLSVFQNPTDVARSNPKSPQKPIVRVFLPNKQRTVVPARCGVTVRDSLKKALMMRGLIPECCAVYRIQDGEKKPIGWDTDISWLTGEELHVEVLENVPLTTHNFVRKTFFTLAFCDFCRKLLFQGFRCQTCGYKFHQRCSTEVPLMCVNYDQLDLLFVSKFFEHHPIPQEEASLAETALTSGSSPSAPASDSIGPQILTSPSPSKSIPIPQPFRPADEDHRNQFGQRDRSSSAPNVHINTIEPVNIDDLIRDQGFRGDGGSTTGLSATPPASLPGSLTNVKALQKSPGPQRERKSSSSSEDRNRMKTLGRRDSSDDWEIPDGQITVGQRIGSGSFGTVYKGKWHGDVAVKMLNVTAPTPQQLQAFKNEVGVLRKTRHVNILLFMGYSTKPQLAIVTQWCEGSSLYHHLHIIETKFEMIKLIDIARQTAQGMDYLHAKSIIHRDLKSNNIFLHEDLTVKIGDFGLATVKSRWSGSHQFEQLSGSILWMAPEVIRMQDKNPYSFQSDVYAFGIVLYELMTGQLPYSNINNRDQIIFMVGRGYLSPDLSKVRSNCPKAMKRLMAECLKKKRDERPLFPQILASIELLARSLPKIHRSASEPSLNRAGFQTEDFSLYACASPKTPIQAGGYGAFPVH
Procedure: as §1

MAP2K6 = target: T12, MAP2K6 (Homo sapiens, UniProt P52564)
T12 construct: purchased in-house DSF (thermal shift) panel per Fedorov et al
Procedure: as §1

BMX = target: T13, BMX (Homo sapiens, UniProt P51813)
T13 construct: purchased in-house DSF (thermal shift) panel per Fedorov et al; IC50 follow-up at Reaction Biology Corp
Procedure: as §1

GSG2 = target: T14, GSG2 (Homo sapiens, UniProt Q8TF76)
T14 construct: purchased in-house DSF (thermal shift) panel per Fedorov et al
Procedure: as §1

DYRK2 = target: T15, DYRK2 (Homo sapiens, UniProt Q92630)
T15 construct: purchased in-house DSF (thermal shift) panel per Fedorov et al
Procedure: as §1

AAK1 = target: T16, AAK1 (Homo sapiens, UniProt Q2M2I8)
T16 construct: purchased in-house DSF (thermal shift) panel per Fedorov et al; IC50 follow-up at Reaction Biology Corp
Procedure: as §1

VRK1 = target: T17, VRK1 (Homo sapiens, UniProt Q99986)
T17 construct: purchased in-house DSF (thermal shift) panel per Fedorov et al; IC50 follow-up at Reaction Biology Corp
Procedure: as §1

MAPK14 = target: T18, MAPK14 (Homo sapiens, UniProt Q16539)
T18 construct: purchased in-house DSF (thermal shift) panel per Fedorov et al
Procedure: as §1

STK38L = target: T19, STK38L (Homo sapiens, UniProt Q9Y2H1)
T19 construct: purchased in-house DSF (thermal shift) panel per Fedorov et al; IC50 follow-up at Reaction Biology Corp
Procedure: as §1

AKT3 = target: T20, AKT3 (Homo sapiens, UniProt Q9Y243)
T20 construct: purchased in-house DSF (thermal shift) panel per Fedorov et al
Procedure: as §1

RPS6KA6 = target: T21, RPS6KA6 (Homo sapiens, UniProt Q9UK32)
T21 construct: purchased in-house DSF (thermal shift) panel per Fedorov et al
Procedure: as §1

CDK2 = target: T22, CDK2 (Homo sapiens, UniProt P24941)
T22 construct: purchased in-house DSF (thermal shift) panel per Fedorov et al; IC50 follow-up at Reaction Biology Corp
Procedure: as §1

MAP3K5 = target: T23, MAP3K5 (Homo sapiens, UniProt Q99683)
T23 construct: purchased in-house DSF (thermal shift) panel per Fedorov et al
Procedure: as §1

GAK = target: T24, GAK (Homo sapiens, UniProt O14976)
T24 construct: purchased in-house DSF (thermal shift) panel per Fedorov et al; IC50 follow-up at Reaction Biology Corp
Procedure: as §1

NEK7 = target: T25, NEK7 (Homo sapiens, UniProt Q8TDX7)
T25 construct: purchased in-house DSF (thermal shift) panel per Fedorov et al
Procedure: as §1

SRPK1 = target: T26, SRPK1 (Homo sapiens, UniProt Q96SB4)
T26 construct: purchased in-house DSF (thermal shift) panel per Fedorov et al
T26 sequence (Q96SB4 whole entry): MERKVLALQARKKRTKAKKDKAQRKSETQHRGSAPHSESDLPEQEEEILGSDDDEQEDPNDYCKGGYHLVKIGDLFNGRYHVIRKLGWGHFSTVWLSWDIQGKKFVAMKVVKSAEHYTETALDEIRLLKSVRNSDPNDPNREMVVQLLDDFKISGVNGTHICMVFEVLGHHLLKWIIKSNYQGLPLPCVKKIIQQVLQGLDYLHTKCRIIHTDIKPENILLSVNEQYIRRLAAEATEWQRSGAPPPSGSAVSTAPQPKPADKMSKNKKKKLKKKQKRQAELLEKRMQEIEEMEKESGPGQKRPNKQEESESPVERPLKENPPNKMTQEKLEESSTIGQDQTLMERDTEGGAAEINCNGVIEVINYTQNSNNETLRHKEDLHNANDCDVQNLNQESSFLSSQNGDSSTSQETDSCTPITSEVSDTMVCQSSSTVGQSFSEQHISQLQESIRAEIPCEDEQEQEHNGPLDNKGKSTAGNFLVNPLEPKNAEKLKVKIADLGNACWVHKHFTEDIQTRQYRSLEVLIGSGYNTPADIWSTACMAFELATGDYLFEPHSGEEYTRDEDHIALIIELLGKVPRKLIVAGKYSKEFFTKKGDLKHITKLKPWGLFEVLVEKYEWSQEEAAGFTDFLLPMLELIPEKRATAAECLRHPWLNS
Procedure: as §1

STK4 = target: T27, STK4 (Homo sapiens, UniProt Q13043)
T27 construct: purchased in-house DSF (thermal shift) panel per Fedorov et al; IC50 follow-up at Reaction Biology Corp
Procedure: as §1

CAMK1D = target: T28, CAMK1D (Homo sapiens, UniProt Q8IU85)
T28 construct: purchased in-house DSF (thermal shift) panel per Fedorov et al; IC50 follow-up at Reaction Biology Corp
Procedure: as §1

FGFR3 = target: T29, FGFR3 (Homo sapiens, UniProt P22607)
T29 construct: purchased in-house DSF (thermal shift) panel per Fedorov et al
T29 sequence (P22607 23-806): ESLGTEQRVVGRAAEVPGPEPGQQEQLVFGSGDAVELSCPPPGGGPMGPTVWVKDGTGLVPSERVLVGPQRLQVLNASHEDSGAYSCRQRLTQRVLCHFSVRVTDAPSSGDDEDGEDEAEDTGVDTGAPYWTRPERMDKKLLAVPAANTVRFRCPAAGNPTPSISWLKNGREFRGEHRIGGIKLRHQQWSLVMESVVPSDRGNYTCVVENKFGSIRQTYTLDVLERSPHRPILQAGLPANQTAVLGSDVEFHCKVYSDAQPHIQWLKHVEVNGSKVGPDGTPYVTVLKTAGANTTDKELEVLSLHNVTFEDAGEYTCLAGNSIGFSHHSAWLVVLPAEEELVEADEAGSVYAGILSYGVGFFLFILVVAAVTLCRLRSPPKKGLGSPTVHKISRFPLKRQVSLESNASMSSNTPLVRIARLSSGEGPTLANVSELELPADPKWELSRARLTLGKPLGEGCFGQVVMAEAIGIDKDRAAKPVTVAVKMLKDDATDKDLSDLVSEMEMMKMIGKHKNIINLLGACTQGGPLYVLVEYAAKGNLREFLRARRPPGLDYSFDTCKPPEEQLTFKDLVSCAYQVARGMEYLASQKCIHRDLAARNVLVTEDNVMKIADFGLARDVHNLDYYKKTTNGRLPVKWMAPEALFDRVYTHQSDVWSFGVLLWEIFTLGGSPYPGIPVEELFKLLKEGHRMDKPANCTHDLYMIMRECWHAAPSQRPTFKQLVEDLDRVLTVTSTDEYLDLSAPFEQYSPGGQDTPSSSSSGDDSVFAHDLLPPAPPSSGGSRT
Procedure: as §1

STK17 = target: T30, STK17 (Homo sapiens, UniProt Q9UEE5)
T30 construct: purchased in-house DSF (thermal shift) panel per Fedorov et al
Procedure: as §1

RIOK1 = target: T31, RIOK1 (Homo sapiens, UniProt Q9BRS2)
T31 construct: purchased in-house DSF (thermal shift) panel per Fedorov et al; IC50 follow-up at Reaction Biology Corp
T31 sequence (Q9BRS2 whole entry): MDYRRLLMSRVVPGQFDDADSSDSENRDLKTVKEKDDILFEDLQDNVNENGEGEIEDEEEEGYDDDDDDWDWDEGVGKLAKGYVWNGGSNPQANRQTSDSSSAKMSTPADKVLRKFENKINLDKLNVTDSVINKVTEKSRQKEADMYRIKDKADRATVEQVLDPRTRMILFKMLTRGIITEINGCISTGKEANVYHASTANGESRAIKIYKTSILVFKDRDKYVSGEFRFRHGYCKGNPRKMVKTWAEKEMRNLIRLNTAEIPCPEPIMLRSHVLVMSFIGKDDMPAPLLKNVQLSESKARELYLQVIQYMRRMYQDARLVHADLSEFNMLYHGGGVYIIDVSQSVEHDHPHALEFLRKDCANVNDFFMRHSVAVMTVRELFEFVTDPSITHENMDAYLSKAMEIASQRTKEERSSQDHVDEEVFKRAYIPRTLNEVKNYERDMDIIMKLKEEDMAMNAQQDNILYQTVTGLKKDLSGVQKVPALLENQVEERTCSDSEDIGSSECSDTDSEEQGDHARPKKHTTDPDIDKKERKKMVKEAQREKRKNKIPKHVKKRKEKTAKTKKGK
Procedure: as §1

DYRK1A = target: T32, DYRK1A (Homo sapiens, UniProt Q13627)
T32 construct: purchased in-house DSF (thermal shift) panel per Fedorov et al
Procedure: as §1

TOPK = target: T33, TOPK (Homo sapiens, UniProt Q96KB5)
T33 construct: purchased in-house DSF (thermal shift) panel per Fedorov et al
T33 sequence (Q96KB5 whole entry): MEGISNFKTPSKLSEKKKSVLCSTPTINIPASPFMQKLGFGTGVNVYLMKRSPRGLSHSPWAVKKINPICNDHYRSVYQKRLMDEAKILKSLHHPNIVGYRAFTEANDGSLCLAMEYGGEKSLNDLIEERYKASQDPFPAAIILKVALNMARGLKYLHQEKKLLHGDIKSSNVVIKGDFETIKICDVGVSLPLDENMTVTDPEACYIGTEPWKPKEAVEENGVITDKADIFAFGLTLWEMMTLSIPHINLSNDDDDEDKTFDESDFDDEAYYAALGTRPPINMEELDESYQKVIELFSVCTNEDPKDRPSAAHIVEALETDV
Procedure: as §1

MARK4 = target: T34, MARK4 (Homo sapiens, UniProt Q96L34)
T34 construct: purchased in-house DSF (thermal shift) panel per Fedorov et al; IC50 follow-up at Reaction Biology Corp
Procedure: as §1

MST3 = target: T35, MST3 (Homo sapiens, UniProt Q9Y6E0)
T35 construct: purchased in-house DSF (thermal shift) panel per Fedorov et al
Procedure: as §1

BRD4 = target: T36, BRD4 (Homo sapiens, UniProt O60885)
T36 construct: purchased in-house DSF (thermal shift) panel per Fedorov et al; IC50 follow-up at Reaction Biology Corp
Procedure: as §1

TTK1 = target: T37, TTK1 (Homo sapiens, UniProt P33981)
T37 construct: purchased in-house DSF (thermal shift) panel per Fedorov et al
Procedure: as §1

PHKG2 = target: T38, PHKG2 (Homo sapiens, UniProt P15735)
T38 construct: purchased in-house DSF (thermal shift) panel per Fedorov et al
Procedure: as §1

MAPK9 = target: T39, MAPK9 (Homo sapiens, UniProt P45984)
T39 construct: purchased in-house DSF (thermal shift) panel per Fedorov et al
Procedure: as §1

FES = target: T40, FES (Homo sapiens, UniProt P07332)
T40 construct: purchased in-house DSF (thermal shift) panel per Fedorov et al; IC50 follow-up at Reaction Biology Corp
Procedure: as §1

PDK4 = target: T41, PDK4 (Homo sapiens, UniProt Q16654)
T41 construct: purchased in-house DSF (thermal shift) panel per Fedorov et al; IC50 follow-up at Reaction Biology Corp
Procedure: as §1

CCc1cnc(Nc2nc(Cl)ccc2[N+](=O)[O-])nc1N1CCN(Cc2nc3cc(C(F)(F)F)ccc3[nH]2)CC1 [Compound 2]
ΔTm at 10 µM (CAMK2D): -0.1 °C
ΔTm at 10 µM (GPRK5): -0.6 °C
ΔTm at 10 µM (CAMK1G): -0.6 °C
ΔTm at 10 µM (PCTK1): -0.2 °C
ΔTm at 10 µM (TLK1): 0 °C
ΔTm at 10 µM (ABL1): 0.6 °C
ΔTm at 10 µM (FLT1): 0.1 °C
ΔTm at 10 µM (CDKL1): -0.4 °C
ΔTm at 10 µM (GSK3B): 0.4 °C
ΔTm at 10 µM (EPHA5): 0.5 °C
ΔTm at 10 µM (BRAF): -0.1 °C
ΔTm at 10 µM (MAP2K6): 0.5 °C
ΔTm at 10 µM (BMX): -0.5 °C
ΔTm at 10 µM (GSG2): 0.1 °C
ΔTm at 10 µM (DYRK2): 0.1 °C
ΔTm at 10 µM (AAK1): -0.2 °C
ΔTm at 10 µM (VRK1): -0.4 °C
ΔTm at 10 µM (MAPK14): -0.5 °C
ΔTm at 10 µM (STK38L): -0.2 °C
ΔTm at 10 µM (AKT3): 0.2 °C
ΔTm at 10 µM (RPS6KA6): 0.6 °C
ΔTm at 10 µM (CDK2): -0.2 °C
ΔTm at 10 µM (MAP3K5): 0.2 °C
ΔTm at 10 µM (GAK): -0.6 °C
ΔTm at 10 µM (NEK7): 0.2 °C
ΔTm at 10 µM (SRPK1): 0 °C
ΔTm at 10 µM (STK4): -0.5 °C
ΔTm at 10 µM (CAMK1D): 1.1 °C
ΔTm at 10 µM (FGFR3): 0.1 °C
ΔTm at 10 µM (STK17): -0.7 °C
ΔTm at 10 µM (RIOK1): 0.2 °C
ΔTm at 10 µM (DYRK1A): -2.4 °C
ΔTm at 10 µM (TOPK): -0.5 °C
ΔTm at 10 µM (MARK4): 0.1 °C
ΔTm at 10 µM (MST3): -0.3 °C
ΔTm at 10 µM (BRD4): -1 °C
ΔTm at 10 µM (TTK1): 1.5 °C
ΔTm at 10 µM (PHKG2): 0.2 °C
ΔTm at 10 µM (MAPK9): 0 °C
ΔTm at 10 µM (FES): 0 °C
ΔTm at 10 µM (PDK4): -0.1 °C
